What all share (format): in vivo
The subject of series [1] is Yellow Fever Mosquito (Aedes aegypti, AEDSAE). Conditions: about 1 day-old larvae, 96-well plate from 4000 ppm DMSO master, 3 days at room temperature. In a few lines: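 Each well was scored for mortality after 3 days at room temperature under a non-evaporative lid. Test molecules came from DMSO masters (4000 ppm stock) diluted with water/acetone 90:10 and dispensed into six replicate plates, which were then infested with roughly 1-day-old larvae in liver-powder water.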

Series [2] deals with Cabbage Looper (Trichoplusia ni, TRIPNI). The series can be described thus: Bioassay on Cabbage Looper (CL), 128-well diet tray assay. Particulars: 168 h, read-out: CL % Control (or Mortality) rating. Put shortly: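 Using eight wells per molecule, artificial diet was dosed at 50 μg/cm^2 with compound in 90:10 acetone-water and dried before one to five second-instar larvae were added per well. Covered vented trays were kept at 25° C. with 14:10 light-dark for five to seven days, then per-well percent mortality was recorded and averaged.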

The subject of series [3] is Beet Armyworm (Spodoptera exigua, LAPHEG). The series can be described thus: Bioassay on Beet Armyworm (BAW), 128-well diet tray assay. Particulars: 168 h, read-out: BAW % Control (or Mortality) rating. In a few lines:
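In a 128-well format, eight wells per compound received a surface dose of 50 μg/cm^2 on artificial diet. After drying, each well got one to five second instar larvae, held at 25° C. with 14:10 photoperiod. Mortality percentages after five to seven days were averaged.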

Setting [4] is: 50 μg/cm^2 on artificial diet, second instar larvae, 25° C., five to seven days, average of eight wells.

The structures appear in SMILES notation. Like-named read-outs stand apart in the source and are kept apart here.

As a reminder, the mortality is the percentage killed. In the case of `CN(C(=O)c1cc(NC(=O)[C@H]2[C@H](c3cc(Cl)c(Cl)c(Cl)c3)C2(Cl)Cl)ccc1Cl)C1(C#N)CC1` (relative stereo) [PF21, trans-2-Chloro-N-(1-cyanocyclopropyl)-5-(2,2-dichloro-3-(3,4,5-trichloro-phenyl)cyclopropane-1-carboxamido)-N-methylbenzamide], in series [1], the “YFM % Control (or Mortality) rating” value was “B (More than 0-Less than 80)”. Moreover, the mortality at 50 µg/cm2 in series [2] (setting [4]) and in series [3] (setting [4]) was 50 to 100% throughout.

Regarding `CN(C(=O)c1cc(NC(=O)[C@H]2[C@H](c3ccc(Cl)c(Cl)c3)C2(Cl)Cl)ccc1Cl)C1(C#N)CC1` (relative stereo) [PF22, trans-2-Chloro-N-(1-cyanocyclopropyl)-5-(2,2-dichloro-3-(3,4-dichloro-phenyl)cyclopropane-1-carboxamido)-N-methylbenzamide], the “YFM % Control (or Mortality) rating” value in series [1] is listed as “B (More than 0-Less than 80)”. The mortality at 50 µg/cm2 in series [2] (setting [4]) and in series [3] (setting [4]) was 50 to 100% throughout.

In the case of `O=C(NC1CC1(F)F)c1cc(NC(=O)[C@H]2[C@H](c3cc(Cl)cc(Cl)c3)C2(Cl)Cl)ccc1Cl` (relative stereo) [PF23, trans-2-Chloro-5-(2,2-dichloro-3-(3,5-dichlorophenyl)cyclopropane-1-carboxamido)-N-(2,2-difluorocyclopropyl)benzamide], the “YFM % Control (or Mortality) rating” value in series [1] is “A (80-100)”. Further, the mortality at 50 µg/cm2 in series [2] (setting [4]) and in series [3] (setting [4]) was 50 to 100% throughout.

`N#CC1(NC(=O)c2cc(NC(=O)[C@H]3[C@H](c4cc(Cl)cc(Cl)c4)C3(Br)Br)ccc2Cl)CC1` (relative stereo) [PF30, trans-2-Chloro-N-(1-cyanocyclopropyl)-5-(2,2-dibromo-3-(3,5-dichlorophenyl)-cyclopropane-1-carboxamido)benzamide]: the “YFM % Control (or Mortality) rating” value in series [1] is listed as “D (No activity noticed in this bioassay)”. For the same compound, the mortality at 50 µg/cm2 in series [2] (setting [4]) and in series [3] (setting [4]) was 50 to 100% each time.

For the compound `O=C(NC1CC(F)(F)C1)c1cc(NC(=O)[C@H]2[C@H](c3cc(Cl)cc(Cl)c3)C2(Br)Br)ccc1Cl` (relative stereo) [PF31, trans-2-Chloro-5-(2,2-dibromo-3-(3,5-dichlorophenyl)cyclopropane-1-carboxamido)-N-(3,3-difluorocyclobutyl)benzamide], the “YFM % Control (or Mortality) rating” value in series [1] is “B (More than 0-Less than 80)”. The mortality at 50 µg/cm2 in series [2] (setting [4]) and in series [3] (setting [4]) was 50 to 100% each time.

`CC1(NC(=O)c2cc(NC(=O)[C@H]3[C@H](c4cc(Cl)cc(Cl)c4)C3(Cl)Cl)ccc2Cl)CC1` (relative stereo) [PF32, trans-2-Chloro-5-(2,2-dichloro-3-(3,5-dichloro-phenyl)cyclopropanecarboxamido)-N-(1-methylcyclopropyl)benzamide]: in series [1], the “YFM % Control (or Mortality) rating” value is reported as “A (80-100)”. Besides, the mortality at 50 µg/cm2 in series [2] (setting [4]) and in series [3] (setting [4]) was 50 to 100% each time.

For the compound `COC(=O)C1(NC(=O)c2cc(NC(=O)[C@H]3[C@H](c4cc(Cl)cc(Cl)c4)C3(Cl)Cl)ccc2Cl)CCCC1` (relative stereo) [PF33, trans-Methyl 1-(2-chloro-5-(2,2-dichloro-3-(3,5-dichlorophenyl)cyclopropane-carboxamido)benzamido)cyclopentanecarboxylate], in series [1], the “YFM % Control (or Mortality) rating” value is “D (No activity noticed in this bioassay)”. For the same compound, the mortality at 50 µg/cm2 in series [2] (setting [4]) fell in the range of 50 to 100%; in series [3] (setting [4]), 0 to 50%.

Turning to `O=C(N[C@@H]1CON(CC(F)(F)F)C1=O)c1cc(NC(=O)C2C(c3ccc(Cl)c(Cl)c3)C2(Cl)Cl)ccc1Cl` (stereo in doubt) [Molecule F79, trans-2-Chloro-5-(2,2-dichloro-3-(3,4-dichlorophenyl)cyclopropane-1-carboxamido)-N—((R)-3-oxo-2-(2,2,2-trifluoroethyl)isoxazolidin-4-yl)benzamide], the “YFM % Control (or Mortality) rating” value in series [1] is “A (80-100)”. In addition, the mortality at 50 µg/cm2 in series [2] (setting [4]) and in series [3] (setting [4]) was 50 to 100% in each case.

On to `O=C(N[C@@H]1CON(CC(F)(F)F)C1=O)c1cc(NC(=O)C2C(c3cc(Cl)c(Cl)c(Cl)c3)C2(Cl)Cl)ccc1Cl` (stereo in doubt) [Molecule F80, trans-2-Chloro-5-(2,2-dichloro-3-(3,4,5-trichlorophenyl)cyclopropane-1-carboxamido)-N—((R)-3-oxo-2-(2,2,2-trifluoroethyl)isoxazolidin-4-yl)benzamide], for which the “YFM % Control (or Mortality) rating” value in series [1] was “A (80-100)”. The mortality at 50 µg/cm2 in series [2] (setting [4]) and in series [3] (setting [4]) was 50 to 100% each time.

With `O=C(NC1CCC1)c1cc(NC(=O)C2C(c3cc(Cl)c(Cl)c(Cl)c3)C2(Cl)Cl)ccc1Cl` (stereo not drawn) [Molecule F42, trans-2-Chloro-N-cyclobutyl-5-(2,2-dichloro-3-(3,4-trichlorophenyl)cyclopropanecarboxamido)benzamide], the “YFM % Control (or Mortality) rating” value in series [1] was “D (No activity noticed in this bioassay)”. The mortality at 50 µg/cm2 in series [2] (setting [4]) and in series [3] (setting [4]) was 50 to 100% in each case.

For the compound `N#CC1(NC(=O)c2cc(NC(=O)[C@H]3[C@H](c4cc(Cl)c(Cl)c(Cl)c4)C3(Cl)Cl)ccc2Cl)CC1` [Molecule F63, 2-Chloro-N-(1-cyanocyclopropyl)-5-((1R,3R)-2,2-dichloro-3-(3,4,5-trichloro-phenyl)cyclopropane-1-carboxamido)benzamide], the “YFM % Control (or Mortality) rating” value in series [1] was “A (80-100)”. The mortality at 50 µg/cm2 in series [2] (setting [4]) and in series [3] (setting [4]) was 50 to 100% each time.

For the compound `N#CC1(NC(=O)c2cc(NC(=O)[C@@H]3[C@@H](c4cc(Cl)c(Cl)c(Cl)c4)C3(Cl)Cl)ccc2Cl)CC1` [Molecule F64, 2-Chloro-N-(1-cyanocyclopropyl)-5-((1S,3S)-2,2-dichloro-3-(3,4,5-trichloro-phenyl)cyclopropane-1-carboxamido)benzamide], in series [1], the “YFM % Control (or Mortality) rating” value is “A (80-100)”. The mortality at 50 µg/cm2 in series [2] (setting [4]) and in series [3] (setting [4]) was 50 to 100% each time.

`N#CC1(NC(=O)c2cc(NC(=O)C3C(c4cc(Cl)cc(Cl)c4)C3(Cl)Br)ccc2Cl)CC1` (stereo not drawn) [Molecule F72]: in series [1], the “YFM % Control (or Mortality) rating” value is listed as “D (No activity noticed in this bioassay)”. Moreover, the mortality at 50 µg/cm2 in series [2] and in series [3] was 50 to 100% in each case.

In the case of `O=C(NC1CC(F)(F)C1)c1cc(NC(=O)[C@H]2[C@H](c3cc(Cl)cc(Cl)c3)C2(Cl)Cl)ccc1Cl` [Molecule F73, 2-Chloro-5-((1R,3R)-2,2-dichloro-3-(3,5-dichlorophenyl)cyclopropanecarbox-amido)-N-(3,3-difluorocyclobutyl)benzamide], the “YFM % Control (or Mortality) rating” value in series [1] is reported as “A (80-100)”. Also, the mortality at 50 µg/cm2 in series [2] (setting [4]) and in series [3] (setting [4]) was 50 to 100% each time.

In the case of `O=C(NC1CC(F)(F)C1)c1cc(NC(=O)[C@@H]2[C@@H](c3cc(Cl)cc(Cl)c3)C2(Cl)Cl)ccc1Cl` [Molecule F74, 2-Chloro-5-((1S,3S)-2,2-dichloro-3-(3,5-dichlorophenyl)cyclopropane-1-carboxamido)-N-(3,3-difluorocyclobutyl)benzamide], the “YFM % Control (or Mortality) rating” value in series [1] was “A (80-100)”. Also, the mortality at 50 µg/cm2 in series [2] (setting [4]) and in series [3] (setting [4]) was 50 to 100% throughout.

As to `N#CC1(NC(=O)c2cc(NC(=O)[C@@H]3[C@@H](c4cc(Cl)cc(Cl)c4)C3(Cl)Cl)ccc2Cl)CC1` [Molecule F76, 2-Chloro-N-(1-cyanocyclopropyl)-5-((1S,3S)-2,2-dichloro-3-(3,5-dichloro-phenyl)cyclopropanecarboxamido)benzamide], in series [1], the “YFM % Control (or Mortality) rating” value is “A (80-100)”. The mortality at 50 µg/cm2 in series [2] (setting [4]) and in series [3] (setting [4]) was 50 to 100% each time.

`N#Cc1cc(Cl)cc(C2C(C(=O)Nc3ccc(Cl)c(C(=O)NC4CC(F)(F)C4)c3)C2(Cl)Cl)c1` (stereo not drawn) [Molecule F77, trans-2-Chloro-5-(2,2-dichloro-3-(3-chloro-5-cyanophenyl)cyclopropane-1-carboxamidocarboxamido)-N-(3,3-difluorocyclobutyl)benzamide]: in series [1], the “YFM % Control (or Mortality) rating” value is “A (80-100)”. The mortality at 50 µg/cm2 in series [2] (setting [4]) and in series [3] (setting [4]) was 50 to 100% in each case.

On to `O=C(N[C@@H]1CON(CC(F)(F)F)C1=O)c1cc(NC(=O)C2C(c3cc(Cl)cc(Cl)c3)C2(Cl)Cl)ccc1Cl` (stereo partly drawn) [PF28, trans-2-Chloro-5-(2,2-dichloro-3-(3,5-dichlorophenyl)cyclopropane-1-carbox-amido)-N—((R)-3-oxo-2-(2,2,2-trifluoroethyl)isoxazolidin-4-yl)benzamide], for which, in series [1], the “YFM % Control (or Mortality) rating” value is “A (80-100)”. In addition, the mortality at 50 µg/cm2 in series [2] (setting [4]) and in series [3] (setting [4]) was 50 to 100% throughout.

In the case of `O=C(NC1CCNC1=O)c1cc(NC(=O)C2C(c3cc(Cl)cc(Cl)c3)C2(Cl)Cl)ccc1Cl` (stereo not drawn) [PF29, trans-2-Chloro-5-(2,2-dichloro-3-(3,5-dichlorophenyl)cyclopropane-1-carbox-amido)-N-(2-oxopyrrolidin-3-yl)benzamide], the “YFM % Control (or Mortality) rating” value in series [1] was “B (More than 0-Less than 80)”. In addition, the mortality at 50 µg/cm2 in series [2] (setting [4]) and in series [3] (setting [4]) was 50 to 100% throughout.

The values are drawn from patent US9795139B2, “Molecules having pesticidal utility, and intermediates, compositions, and processes, related thereto” (priority 2015, dated 2017).
